The record followed here is patent US20080293696A1, “2-Aminoarylcarboxamides Useful as Cancer Chemotherapeutic Agents” (Bayer Pharmaceuticals Corporation, priority 2004, published 2008).

The test system of the assay is PAKT/PKB (p-(S473) AKT) in H209 small cell lung carcinoma cells stimulated with Stem Cell Factor. The experiment in a line: PAKT/PKB Cytoblot Assay with H209 cells (SCF-stimulated p-(S473) AKT). It is filed as cell-based. To be noted: Homo sapiens, NCI-H209, compound 1 hour, SCF 25 ng/mL 5 minutes. As for the experimental part: PAKT/PKB Cytoblot Assay Protocol with H209 Cells
H209 small cell lung carcinoma cells in log phase were plated at 50,000 cells/well in 96-well poly-lysine coated, clear bottom/black-sided plates (BD Cat # 354640) in 100 μl RPMI medium containing 0.1% (w/v) BSA, and incubated overnight at 37° C. in 5% CO2 incubator. The following day, compounds (10 mM stock solutions in DMSO) were added to the plates to generate final concentrations of 0.0, 0.01, 0.03, 0.1, 0.3, 1.0, 3.0 and 10 μM for IC50 determinations and incubated for 1 hour at 37° C. Cells were then left untreated or stimulated with Stem Cell Factor (SCF: Biosource Cat # PHC2116) at a final concentration of 25 ng/mL for 5 minutes at 37° C. in 5% CO2 incubator. The media was then removed using a vacuum manifold and the cells were washed once with Tris Buffered Saline (TBS).
Cells were then fixed by adding 200 μl of cold 3.7% (v/v) formaldehyde in TBS to each well for 15 minutes at 4° C. After removal of the formaldehyde, the cells were treated with the addition of 50 μl of methanol (at −20° C.) to each well for 5 minutes. After removal of the methanol, […] of 1% (w/v) BSA in TBS was added to each well to block non-specific antibody binding sites and the plate was incubated at room temperature for 30 minutes.
After removal of the blocking buffer, 50 μl of p-(S473) AKT rabbit polyclonal antibody (Cell Signaling Cat # 9277S) was added at a dilution of 1:250 in 0.1% (w/v) BSA in TBS, and the plate was incubated at room temperature for 1 hour. Plates were then washed 3 times with cold TBS containing 0.05% (v/v) Tween 20 (TBS-T) and […] of Horseradish peroxidase (HRP)-conjugated goat-anti-rabbit antibody (Amersham Cat # NA934V) at a dilution of 1:250 in TBS-T was added and the plate was incubated at room temperature for 1 h. After washing with ice-cold TBS-T four times, 100 μl of Enhanced Chemiluminescence (ECL) reagent (Amersham Cat# RPN2209) was added to each well and mixed on a mini-orbital shaker for 1 min. The plate was then read on a Perkin Elmer Victor 5 Multilabel Counter (#1420-0421).

Where a name gives a salt, the structure may show the parent alone.

As to `O=C(Nc1ccc2c(c1)C(F)(F)OC(F)(F)O2)c1ccccc1NCc1ccncc1` [Example 2, 2-[(pyridin-4-ylmethyl)amino]-N-(2,2,4,4-tetrafluoro-4H-1,3-benzodioxin-6-yl)benzamide], the IC50 (usually the concentration at which inhibition is half-maximal) (group: less than 500 nM) is below 0.5 µM.
Same read-out and setting: then `CCNC(=O)c1cc(CNc2ccccc2C(=O)Nc2ccc3c(c2)OC(F)(F)O3)ccn1` [Example 45, 4-{[(2-{[(2,2-difluoro-1,3-benzodioxol-5-yl)amino]carbonyl}phenyl)amino]methyl}-N-ethylpyridine-2-carboxamide], with below 0.5 µM; and `CNC(=O)c1cc(CNc2cc(F)ccc2C(=O)Nc2ccc3c(c2)OC(F)(F)C(F)(F)O3)ccn1` [Example 32, 4-{[(5-fluoro-2-{[(2,2,3,3-tetrafluoro-2,3-dihydro-1,4-benzodioxin-6-yl)amino]carbonyl}phenyl)amino]methyl}-N-methylpyridine-2-carboxamide], with below 0.5 µM.
`COCCCNc1cc(CNc2ccccc2C(=O)Nc2ccc3c(c2)OC(F)(F)O3)ccn1` [Example 136, N-(2,2-difluoro-1,3-benzodioxol-5-yl)-2-[({2-[(3-methoxypropyl)amino]pyridin-4-yl}methyl)amino]benzamide trifluoroacetate] displayed a half-maximal inhibitory concentration (IC50) (group: less than 500 nM) below 0.5 µM.
The same measure, in the same setting: the figure for `CC(C)OCCCNc1cc(CNc2ccccc2C(=O)Nc2ccc3c(c2)OC(F)(F)O3)ccn1` [Example 140, N-(2,2-difluoro-1,3-benzodioxol-5-yl)-2-[({2-[(3-isopropoxypropyl)amino]pyridin-4-yl}methyl)amino]benzamide trifluoroacetate] is below 0.5 µM.
The same measure, in the same setting: then `O=C(Nc1ccc2c(c1)OC(F)(F)C(F)(F)O2)c1ccc(F)cc1NCc1ccncc1` [Example 18, 4-fluoro-2-[(pyridin-4-ylmethyl)amino]-N-(2,2,3,3-tetrafluoro-2,3-dihydro-1,4-benzodioxin-6-yl)benzamide], with below 0.5 µM; and `O=C(Nc1ccc2c(c1)OC(F)(F)C(F)(F)O2)c1cccnc1NCc1ccncc1` [Example 12, 2-[(pyridin-4-ylmethyl)amino]-N-(2,2,3,3-tetrafluoro-2,3-dihydro-1,4-benzodioxin-6-yl)nicotinamide], with below 0.5 µM.
For the setting “group: between 1 and 3 μM”, `N#Cc1cccc(NC(=O)Nc2cc(CNc3ccccc3C(=O)Nc3ccc4c(c3)OC(F)(F)O4)ccn2)c1` [Example 166, 2-({[2-({[(3-cyanophenyl)amino]carbonyl}amino)pyridin-4-yl]methyl}amino)-N-(2,2-difluoro-1,3-benzodioxol-5-yl)benzamide] showed an IC50 of 1 to 3 µM.
On to `CCCOCCCNC(=O)c1cc(CNc2ccccc2C(=O)Nc2ccc3c(c2)OC(F)(F)O3)ccn1` [Example 124, 4-{[(2-{[(2,2-difluoro-1,3-benzodioxol-5-yl)amino]carbonyl}phenyl)amino]methyl}-N-(3-propoxypropyl)pyridine-2-carboxamide], for which the IC50 (group: less than 500 nM) is below 0.5 µM.
Regarding `O=C(Nc1ccc2c(c1)OC(F)(F)O2)c1ccccc1NCc1ccnc(NCC2CCCO2)c1` (stereo not drawn) [Example 148, N-(2,2-difluoro-1,3-benzodioxol-5-yl)-2-[({2-[(tetrahydrofuran-2-ylmethyl)amino]pyridin-4-yl}methyl)amino]benzamide trifluoroacetate], the IC50 (group: less than 500 nM) was below 0.5 µM.
Take `CCN1CCCC1CNC(=O)c1cc(CNc2ccccc2C(=O)Nc2ccc3c(c2)OC(F)(F)O3)ccn1` (stereo not drawn) [Example 84, 4-{[(2-{[(2,2-difluoro-1,3-benzodioxol-5-yl)amino]carbonyl}phenyl)amino]methyl}-N-[(1-ethylpyrrolidin-2-yl)methyl]pyridine-2-carboxamide]: the IC50 (group: between 500 nM and 1 μM (units in value)) was in the range of 0.5 to 1 µM.
Under “group: less than 500 nM”, `CNC(=O)c1cc(CNc2ccccc2C(=O)Nc2ccc3c(c2)OC(F)(F)C(F)(F)O3)ccn1` [Example 3, N-methyl-4-{[(2-{[(2,2,3,3-tetrafluoro-2,3-dihydro-1,4-benzodioxin-6-yl)amino]carbonyl}phenyl)amino]methyl}pyridine-2-carboxamide] displayed an IC50 below 0.5 µM.
